Molecular target: human F508del-CFTR (Homo sapiens, UniProt P13569, DEL508-508)
Assay: F508del-CFTR cell surface expression (corrector activity), DiscoveRx ß-galactosidase complementation chemiluminescence assay in recombinant U2OS cell line;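 note: U2OS cells co-expressing ProLink-tagged F508del-CFTR and a membrane-anchored enzyme acceptor, where more surface CFTR restores β-galactosidase activity measured by chemiluminescence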
Settings: U2OS cells, 16h compound incubation; for EC50: EC50, F508del-CFTR cell surface expression, geomean of several measurements; for Emax: U2OS, in relation to the Emax of the corrector lumacaftor (=100%), arithmetic mean

Chain of human F508del-CFTR (P13569 with tags, fused parts or gaps DEL508-508): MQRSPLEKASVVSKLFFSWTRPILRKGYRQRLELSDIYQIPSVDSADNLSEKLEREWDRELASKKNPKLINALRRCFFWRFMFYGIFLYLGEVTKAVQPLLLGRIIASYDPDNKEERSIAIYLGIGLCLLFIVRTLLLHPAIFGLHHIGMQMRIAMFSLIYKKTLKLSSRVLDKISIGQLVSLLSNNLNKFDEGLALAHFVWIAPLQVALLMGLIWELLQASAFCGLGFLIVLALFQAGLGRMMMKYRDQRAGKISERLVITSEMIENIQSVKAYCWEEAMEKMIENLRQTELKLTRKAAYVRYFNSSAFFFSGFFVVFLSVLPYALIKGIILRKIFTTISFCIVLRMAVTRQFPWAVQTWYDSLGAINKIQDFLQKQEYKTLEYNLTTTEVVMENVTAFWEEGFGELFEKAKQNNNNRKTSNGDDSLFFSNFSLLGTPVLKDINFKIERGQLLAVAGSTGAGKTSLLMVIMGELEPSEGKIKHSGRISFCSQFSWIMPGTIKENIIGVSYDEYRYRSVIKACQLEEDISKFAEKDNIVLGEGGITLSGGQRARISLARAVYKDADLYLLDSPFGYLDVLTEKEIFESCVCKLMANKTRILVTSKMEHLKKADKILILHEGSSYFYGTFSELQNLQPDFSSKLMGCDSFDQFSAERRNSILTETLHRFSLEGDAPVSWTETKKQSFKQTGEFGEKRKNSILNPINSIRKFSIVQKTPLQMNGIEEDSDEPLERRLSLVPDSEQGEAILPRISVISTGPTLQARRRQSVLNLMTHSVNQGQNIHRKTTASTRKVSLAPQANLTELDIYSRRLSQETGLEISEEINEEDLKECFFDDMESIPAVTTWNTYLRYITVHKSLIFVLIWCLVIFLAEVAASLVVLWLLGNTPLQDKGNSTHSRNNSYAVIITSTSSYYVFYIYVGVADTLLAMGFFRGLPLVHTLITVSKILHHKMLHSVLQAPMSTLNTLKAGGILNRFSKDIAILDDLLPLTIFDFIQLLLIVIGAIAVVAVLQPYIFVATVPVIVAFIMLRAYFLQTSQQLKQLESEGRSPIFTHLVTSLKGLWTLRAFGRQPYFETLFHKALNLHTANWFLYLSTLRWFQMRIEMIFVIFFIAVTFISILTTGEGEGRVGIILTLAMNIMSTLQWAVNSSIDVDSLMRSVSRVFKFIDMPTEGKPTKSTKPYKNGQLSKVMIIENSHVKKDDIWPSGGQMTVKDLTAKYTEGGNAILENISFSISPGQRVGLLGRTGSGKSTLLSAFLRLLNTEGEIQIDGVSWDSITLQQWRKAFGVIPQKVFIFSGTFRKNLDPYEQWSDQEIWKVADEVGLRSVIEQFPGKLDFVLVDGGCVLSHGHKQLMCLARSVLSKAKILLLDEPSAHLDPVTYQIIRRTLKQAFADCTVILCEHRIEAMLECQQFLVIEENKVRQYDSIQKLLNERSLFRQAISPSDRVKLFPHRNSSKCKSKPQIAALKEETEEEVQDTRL

EC50 | Emax | SMILES
46 nM | 465% | COc1nc(C)cc2c1C(=O)N[C@H](C(=O)NCCc1nc(C3CC3)no1)CC(=O)N(C)[C@@H](CC(C)C)C(=O)N(C)[C@H](Cc1nc(C(F)(F)F)no1)C(=O)N[C@H](Cc1ccccc1)CO2 [Example 849, (3R,6R,9S,13S)-3-benzyl-N-(2-(3-cyclopropyl-1,2,4-oxadiazol-5-yl)ethyl)-9-isobutyl-16-methoxy-7,10,18-trimethyl-5,8,11,15-tetraoxo-6-((3-(trifluoromethyl)-1,2,4-oxadiazol-5-yl)methyl)-2,3,4,5,6,7,8,9,10,11,12,13,14,15-tetradecahydropyrido[3,4-p][1]oxa[4,7,10,14]tetraazacycloheptadecine-13-carboxamide]
1150 nM | 224% | COc1nccc2c1C(=O)N[C@H](C(=O)NCCCOC(F)F)CC(=O)N(C)[C@@H](CC(C)C)C(=O)N1CCCC[C@@H]1C(=O)N[C@H](Cc1ccccc1)CO2 [Example 850, (7S,11S,17aR,20R)-20-benzyl-N-(3-(difluoromethoxy)propyl)-11-isobutyl-4-methoxy-10-methyl-5,9,12,18-tetraoxo-5,6,7,8,9,10,11,12,15,16,17,17a,18,19,20,21-hexadecahydro-14H-dipyrido[2,1-f:3′,4′-p][1]oxa[4,7,10,14]tetraazacycloheptadecine-7-carboxamide]
163 nM | 249% | Cc1cc(CCNC(=O)[C@@H]2CC(=O)N(C)[C@@H](CC(C)C)C(=O)N3CCN(c4ccc(F)cn4)C[C@@H]3C(=O)N[C@H](Cc3ccccc3)COc3cnc4ccccc4c3C(=O)N2)on1 [Example 852, (9S,13S,19aR,22R)-22-benzyl-18-(5-fluoropyridin-2-yl)-13-isobutyl-12-methyl-N-(2-(3-methylisoxazol-5-yl)ethyl)-7,11,14,20-tetraoxo-7,8,9,10,11,12,13,14,17,18,19,19a,20,21,22,23-hexadecahydro-16H-pyrazino[2′,11:6,7][1]oxa[4,7,10,14]tetraazacycloheptadecino[17,16-c]quinoline-9-carboxamide]
136 nM | 326% | COc1cc(CCNC(=O)[C@@H]2CC(=O)N(C)[C@@H](CC(C)C)C(=O)N(C)[C@H](CC3CCC(F)(F)CC3)C(=O)N[C@H](Cc3ccccc3)COc3ccnc(OC)c3C(=O)N2)on1 [Example 854, (3R,6R,9S,13S)-3-benzyl-6-((4,4-difluorocyclohexyl)methyl)-9-isobutyl-16-methoxy-N-(2-(3-methoxyisoxazol-5-yl)ethyl)-7,10-dimethyl-5,8,11,15-tetraoxo-2,3,4,5,6,7,8,9,10,11,12,13,14,15-tetradecahydropyrido[3,4-p][1]oxa[4,7,10,14]tetraazacycloheptadecine-13-carboxamide]
80 nM | 341% | COc1nccc2c1C(=O)N[C@H](C(=O)NCCc1cc(C)no1)CC(=O)N(C)[C@@H](CC(C)C)C(=O)N(C)[C@H](CCOc1ccccc1)C(=O)N[C@H](Cc1ccccc1)CO2 [Example 855, (3R,6R,9S,13S)-3-benzyl-9-isobutyl-16-methoxy-7,10-dimethyl-N-(2-(3-methylisoxazol-5-yl)ethyl)-5,8,11,15-tetraoxo-6-(2-phenoxyethyl)-2,3,4,5,6,7,8,9,10,11,12,13,14,15-tetradecahydropyrido[3,4-p][1]oxa[4,7,10,14]tetraazacycloheptadecine-13-carboxamide]
35 nM | 357% | COc1cc(CCNC(=O)[C@@H]2CC(=O)N(C)[C@@H](CC(C)C)C(=O)N(C)[C@H](CCOc3ccccc3)C(=O)N[C@H](Cc3ccccc3)COc3ccnc(OC)c3C(=O)N2)on1 [Example 856, (3R,6R,9S,13S)-3-benzyl-9-isobutyl-16-methoxy-N-(2-(3-methoxyisoxazol-5-yl)ethyl)-7,10-dimethyl-5,8,11,15-tetraoxo-6-(2-phenoxyethyl)-2,3,4,5,6,7,8,9,10,11,12,13,14,15-tetradecahydropyrido[3,4-p][1]oxa[4,7,10,14]tetraazacycloheptadecine-13-carboxamide]
95 nM | 308% | COc1nccc2c1C(=O)N[C@H](C(=O)NCCc1cc(C)no1)CC(=O)N(C)[C@@H](CC(C)C)C(=O)N(C)[C@H](CCOC1CCCCC1)C(=O)N[C@H](Cc1ccccc1)CO2 [Example 858, (3R,6R,9S,13S)-3-benzyl-6-(2-(cyclohexyloxy)ethyl)-9-isobutyl-16-methoxy-7,10-dimethyl-N-(2-(3-methylisoxazol-5-yl)ethyl)-5,8,11,15-tetraoxo-2,3,4,5,6,7,8,9,10,11,12,13,14,15-tetradecahydropyrido[3,4-p][1]oxa[4,7,10,14]tetraazacycloheptadecine-13-carboxamide]
921 nM | 335% | COc1nc(C)nc2c1C(=O)N[C@H](C(=O)NCCc1cc(C3CC3)no1)CC(=O)N(C)[C@@H](CC(C)C)C(=O)N(C)[C@H](C)C(=O)N[C@H](Cc1ccccc1)CO2 [Example 862, (7S,11S,14R,17R)-17-benzyl-N-(2-(3-cyclopropylisoxazol-5-yl)ethyl)-11-isobutyl-4-methoxy-2,10,13,14-tetramethyl-5,9,12,15-tetraoxo-5,6,7,8,9,10,11,12,13,14,15,16,17,18-tetradecahydropyrimido[5,4-p][1]oxa[4,7,10,14]tetraazacycloheptadecine-7-carboxamide]

SMILES | EC50 | Emax
Cc1noc(CC[C@@H]2C(=O)N[C@H](Cc3ccccc3)COc3cnc4ccc(F)cc4c3C(=O)N[C@H](C(=O)NCCc3noc(C4CC4)n3)CC(=O)N(C)[C@@H](CC(C)C)C(=O)N2C)n1 [Example 851, (3S,7S,10R,13R)-13-benzyl-N-(2-(5-cyclopropyl-1,2,4-oxadiazol-3-yl)ethyl)-20-fluoro-7-isobutyl-6,9-dimethyl-10-(2-(3-methyl-1,2,4-oxadiazol-5-yl)ethyl)-1,5,8,11-tetraoxo-1,2,3,4,5,6,7,8,9,10,11,12,13,14-tetradecahydro-[1]oxa[4,7,10,14]tetraazacycloheptadecino[17,16-c]quinoline-3-carboxamide] | 148 nM | 310%
COc1cccc(CCNC(=O)[C@@H]2CC(=O)N(C)[C@@H](CC(C)C)C(=O)N3CCN(c4ccc(F)cn4)C[C@@H]3C(=O)N[C@H](Cc3ccccc3)COc3cnc4ccccc4c3C(=O)N2)c1 [Example 853, (9S,13S,19aR,22R)-22-benzyl-18-(5-fluoropyridin-2-yl)-13-isobutyl-N-(3-methoxyphenethyl)-12-methyl-7,11,14,20-tetraoxo-7,8,9,10,11,12,13,14,17,18,19,19a,20,21,22,23-hexadecahydro-16H-pyrazino[2′,1′:6,7][1]oxa[4,7,10,14]tetraazacycloheptadecino[17,16-c]quinoline-9-carboxamide] | 92 nM | 322%
COc1nccc2c1C(=O)N[C@H](C(=O)NCCc1noc(C3CC3)n1)CC(=O)N(C)[C@@H](CC(C)C)C(=O)N(C)[C@H](COC1CCC1)C(=O)N[C@H](Cc1ccccc1)CO2 [Example 857, (3R,6R,9S,13S)-3-benzyl-6-(cyclobutoxymethyl)-N-(2-(5-cyclopropyl-1,2,4-oxadiazol-3-yl)ethyl)-9-isobutyl-16-methoxy-7,10-dimethyl-5,8,11,15-tetraoxo-2,3,4,5,6,7,8,9,10,11,12,13,14,15-tetradecahydropyrido[3,4-p][1]oxa[4,7,10,14]tetraazacycloheptadecine-13-carboxamide] | 407 nM | 337%
COc1nccc2c1C(=O)N[C@H](C(=O)NCCc1noc(C3CC3)n1)CC(=O)N(C)[C@@H](CC(C)C)C(=O)N(C)[C@H](Cc1nc(-c3ccccc3)no1)C(=O)N[C@H](Cc1ccccc1)CO2 [Example 859, (3R,6R,9S,13S)-3-benzyl-N-(2-(5-cyclopropyl-1,2,4-oxadiazol-3-yl)ethyl)-9-isobutyl-16-methoxy-7,10-dimethyl-5,8,11,15-tetraoxo-6-((3-phenyl-1,2,4-oxadiazol-5-yl)methyl)-2,3,4,5,6,7,8,9,10,11,12,13,14,15-tetradecahydropyrido[3,4-p][1]oxa[4,7,10,14]tetraazacycloheptadecine-13-carboxamide] | 36 nM | 342%
COc1cccc(CCNC(=O)[C@@H]2CC(=O)N(C)[C@@H](CC(C)C)C(=O)N(C)[C@H](C)C(=O)N[C@H](Cc3ccccc3)COc3nc(C)nc(OC)c3C(=O)N2)c1 [Example 860, (7S,11S,14R,17R)-17-benzyl-11-isobutyl-4-methoxy-N-(3-methoxyphenethyl)-2,10,13,14-tetramethyl-5,9,12,15-tetraoxo-5,6,7,8,9,10,11,12,13,14,15,16,17,18-tetradecahydropyrimido[5,4-p][1]oxa[4,7,10,14]tetraazacycloheptadecine-7-carboxamide] | 578 nM | 288%
COc1cc(C[C@@H]2C(=O)N[C@H](Cc3ccccc3)COc3ccnc(OC)c3C(=O)N[C@H](C(=O)NCCc3noc(C4CC4)n3)CC(=O)N(C)[C@@H](CC(C)C)C(=O)N2C)on1 [Example 861, (3R,6R,9S,13S)-3-benzyl-N-(2-(5-cyclopropyl-1,2,4-oxadiazol-3-yl)ethyl)-9-isobutyl-16-methoxy-6-((3-methoxyisoxazol-5-yl)methyl)-7,10-dimethyl-5,8,11,15-tetraoxo-2,3,4,5,6,7,8,9,10,11,12,13,14,15-tetradecahydropyrido[3,4-p][1]oxa[4,7,10,14]tetraazacycloheptadecine-13-carboxamide] | 722 nM | 384%
COc1nccc2c1C(=O)N[C@H](C(=O)NCCc1noc(C3CC3)n1)CC(=O)N(C)[C@@H](CC(C)C)C(=O)N1CCCCC[C@@H]1C(=O)N[C@H](Cc1ccccc1)CO2 [Example 863, (7S,11S,18aR,21R)-21-benzyl-N-(2-(5-cyclopropyl-1,2,4-oxadiazol-3-yl)ethyl)-11-isobutyl-4-methoxy-10-methyl-5,9,12,19-tetraoxo-5,6,7,8,9,10,11,12,14,15,16,17,18,18a,19,20,21,22-octadecahydroazepino[2,1-f]pyrido[3,4-p][1]oxa[4,7,10,14]tetraazacycloheptadecine-7-carboxamide] | 587 nM | 326%

— patent publication US20240208992A1, “MACROCYCLES AS CFTR MODULATORS” (Idorsia Pharmaceuticals Ltd, priority 2021, published 2024)
